Measured values: patent publication US10653693B2, “PRMT5 inhibitors and uses thereof” (Epizyme, Inc., priority 2014, dated 2020)

What was measured:
[1] = test system: SW48 colon cancer cells (SW48−/− vs SW48); test: Sensitivity of cells lacking p53 versus wild-type; format: cell-based; details: based on EC50, gIC50, or gIC90
Description: PRMT5 methylation of non-histone substrates (such as E2F1 and p53) also contributes to cancer cell growth and death. Results of Western blot and PCR experiments indicate PRMT5 inhibition leads to gene expression and splicing changes, ultimately resulting in the induction of p53 in cancer cells. A PRMT5 inhibitor of Formula C was used to generate the data in FIG. 21 and FIG. 22.

[2] = test system: MDM4 splicing in Z138 cells; test: MDM4 splicing analysis (PCR); format: cell-based, Human; details: Z138 mantle cell lymphoma cells
Method: Z138 cells were seeded in 10 cm tissue culture dishes at a density of approximately 3×10^6 cells per dish in a volume of 10 mL IMDM+10% horse serum media. Cells were treated with 200 nM or 1 μM of compound at 0.5% DMSO for 1, 2, or 3 days. Cell pellets were harvested by washing once with PBS, […], centrifuging at 1000×g for 5 minutes, then storing at −80° C. until ready to process.
RNA was extracted from cell pellets. First, pellets were thawed on ice and then quickly resuspended in 500 μL Trizol reagent. Samples were then incubated 2-3 minutes at room temperature and vortexed for 30 sec to completely homogenize the lysate. 50 μL of water and 50 μL of chloroform were added to each Trizol-cell mixture, then each sample was vortexed for 30 sec to mix completely. Samples were loaded onto MaXtract High Density tubes and spun at 14,000 RPM for 5 minutes. The clear supernatant (aqueous phase) from each tube was transferred to a new 2 mL tube and 2× volume of freshly prepared 70% ethanol was added to each sample. Samples were loaded onto RNeasy spin columns (part of Qiagen RNeasy Mini kit). Columns were centrifuged at 9000×g for 15 sec and flow-through was discarded. 350 μL Buffer RW1 was added to each column and samples were centrifuged at […] for 15 sec and flow-through was discarded. […] RNA concentration was analyzed on a Nanodrop. […]

[3] = test system: p53 expression in Z138 cells; test: p53 and p21 expression analysis (Western); format: cell-based, Human; details: Z138 mantle cell lymphoma cells
Method: Z138 cells were seeded at approximately 3×10^6 cells/dish in 10 cm tissue culture dishes in a volume of 10 mL IMDM+10% horse serum media. Cells were treated with 1 μM of Formula C for 1, 2, 3, 4, or 5 days. Cell pellets were collected by centrifuging at 500×g for 5 minutes, washing once with PBS, and freezing at −80° C. until ready to be processed.
Protein lysates were prepared by adding RIPA buffer (Sigma R0278) containing protease inhibitor (about 5× the volume of the cell pellet, or roughly 250 μL) to each cell pellet and pipetting to resuspend. Samples were sonicated with 10×1 second pulses then centrifuged at maximum speed (13,300 RPM) for 6 minutes. 200 μL of supernatant was transferred to a fresh Eppendorf tube, and pellets were discarded. Protein concentration was determined using a Pierce BCA Protein Assay kit.
Protein gel samples were prepared by combining 20 μg of lysate with appropriate volumes of Life Technologies NuPage Sample Reducing Agent, LDS Sample Buffer, and RIPA buffer. Gel samples were heated for 5-10 minutes at 100° C. in a heat block. A 15-well Invitrogen 4-12% Bis-Tris NuPAGE-SDS gel was loaded with a volume of 19 μL per well, and run in MES SDS buffer at 150V for about 1 hour or until maximal separation of bands was achieved.
Gels were transferred onto nitrocellulose membranes using an Invitrogen iBlot system. […]

O=C(NC[C@H](O)CN1CCc2ccccc2C1)c1ccnc(NC2CCC2)c1 [Formula C]
sensitivity of cells lacking p53 compared to wild-type [1]: less sensitive | MDM4 splicing [2]: attenuates | p53 expression [3]: increases
